Tests used:
Format in all cases: in vivo
[1] = system: barnyardgrass (Echinochloa crus-galli); test: Test B flooded paddy test; parameters: key: 0 = no effect, 100 = complete control; settings: Flood, 250 g ai/ha applied to paddy water at 2-leaf stage; visually evaluated after 13 to 15 days; scale 0 (no effect) to 100 (complete control)
How it was run: (§1)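 Scoring: visual, compared with untreated controls, 0 = no effect through 100 = complete control, taken 13 to 15 days after treatment in the greenhouse. Compounds had been added to paddy water over soil flooded 3 cm deep at the plants' 2-leaf stage.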

[2] = system: ducksalad (Heteranthera limosa); test: Test B flooded paddy test; parameters: key: 0 = no effect, 100 = complete control; settings: Flood, 250 g ai/ha applied to paddy water at 2-leaf stage; visually evaluated after 13 to 15 days; scale 0 (no effect) to 100 (complete control)
How it was run: as §1

[3] = system: blackgrass (Alopecurus myosuroides); test: Test C preemergence; settings: scale 0 to 100, 0 is no effect, 100 is complete control
Description: (§2) Seeds of plant species selected from blackgrass (Alopecurus myosuroides), Italian ryegrass (Lolium multiflorum), winter wheat (Triticum aestivum), galium (catchweed bedstraw, Galium aparine), corn (Zea mays), large (Lg) crabgrass (Digitaria sanguinalis), giant foxtail (Setaria faberii), johnsongrass (Sorghum halepense), lambsquarters (Chenopodium album), morningglory (Ipomoea coccinea), yellow nutsedge (Cyperus esculentus), pigweed (Amaranthus retroflexus), ragweed (common ragweed, Ambrosia elatior), soybean (Glycine max), barnyardgrass (Echinochloa crus-galli), oilseed rape (Brassica napus), waterhemp (common waterhemp, Amaranthus rudis), and velvetleaf (Abutilon theophrasti) were planted into a blend of loam soil and sand and treated preemergence with test chemicals formulated in a non-phytotoxic solvent mixture which included a surfactant. At the same time, plants selected from these crop and weed species and also chickweed (common chickweed, Stellaria media), kochia (Kochia scoparia), and wild oat (Avena fatua), were planted in pots containing Sunshine Redi-Earth® planting medium comprising spaghnum peat moss, vermiculite, starter nutrients and dolomitic limestone and treated with postemergence applications of test chemicals formulated in the same manner. Plants ranged in height from 2 to 18 cm (1- to 4-leaf stage) for postemergence treatments. Treated plants and controls were maintained in a greenhouse for 13 to 15 days, after which time all species were compared to controls and visually evaluated. Plant response ratings, summarized in Table C, are based on a scale of 0 to 100 where 0 is no effect and 100 is complete control. A dash (-) response means no test result.

[4] = system: Italian ryegrass (Lolium multiflorum); test: Test C preemergence; settings: scale 0 to 100, 0 is no effect, 100 is complete control
Description: as §2

[5] = system: corn (Zea mays); test: Test C preemergence; settings: scale 0 to 100, 0 is no effect, 100 is complete control
Description: as §2

[6] = system: large (Lg) crabgrass (Digitaria sanguinalis); test: Test C preemergence; settings: scale 0 to 100, 0 is no effect, 100 is complete control
Description: as §2

[7] = system: pigweed (Amaranthus retroflexus); test: Test C preemergence; settings: scale 0 to 100, 0 is no effect, 100 is complete control
Description: as §2

[8] = system: yellow nutsedge (Cyperus esculentus); test: Test C preemergence; settings: scale 0 to 100, 0 is no effect, 100 is complete control
Description: as §2

[9] = system: oilseed rape (Brassica napus); test: Test C preemergence; settings: scale 0 to 100, 0 is no effect, 100 is complete control
Description: as §2

[10] = system: morningglory (Ipomoea coccinea); test: Test C preemergence; settings: scale 0 to 100, 0 is no effect, 100 is complete control
Description: as §2

[11] = system: winter wheat (Triticum aestivum); test: Test C preemergence; settings: scale 0 to 100, 0 is no effect, 100 is complete control
Description: as §2

[12] = system: galium (catchweed bedstraw, Galium aparine); test: Test C preemergence; settings: scale 0 to 100, 0 is no effect, 100 is complete control
Description: as §2

[13] = system: johnsongrass (Sorghum halepense); test: Test C preemergence; settings: scale 0 to 100, 0 is no effect, 100 is complete control
Description: as §2

[14] = system: barnyardgrass (Echinochloa crus-galli); test: Test C preemergence; settings: scale 0 to 100, 0 is no effect, 100 is complete control
Description: as §2

[15] = system: waterhemp (common waterhemp, Amaranthus rudis); test: Test C preemergence; settings: scale 0 to 100, 0 is no effect, 100 is complete control
Description: as §2

[16] = system: soybean (Glycine max); test: Test C preemergence; settings: scale 0 to 100, 0 is no effect, 100 is complete control
Description: as §2

[17] = system: lambsquarters (Chenopodium album); test: Test C preemergence; settings: scale 0 to 100, 0 is no effect, 100 is complete control
Description: as §2

[18] = system: velvetleaf (Abutilon theophrasti); test: Test C preemergence; settings: scale 0 to 100, 0 is no effect, 100 is complete control
Description: as §2

[19] = system: ragweed (common ragweed, Ambrosia elatior); test: Test C preemergence; settings: scale 0 to 100, 0 is no effect, 100 is complete control
Description: as §2

[20] = system: giant foxtail (Setaria faberii); test: Test C preemergence; settings: scale 0 to 100, 0 is no effect, 100 is complete control
Description: as §2

O=c1cccc(Oc2ncc(Cl)cn2)n1-c1ccc(Cl)cc1 [Compound 1, 1-(4-chlorophenyl)-6-[(5-chloro-2-pyrimidinyl)oxy]-2(1H)-pyridinone] was tested, and the “Plant response rating, Barnyardgrass” value [1] was 20, the “Plant response rating, Ducksalad” value [2] was 45 and the “Plant response rating, Blackgrass” value ([3]; 16 g ai/ha) was 0. The “Plant response rating, Blackgrass” value ([3]; 31 g ai/ha) was 20, the “Plant response rating, Blackgrass” value ([3]; 62 g ai/ha) was 25 and the “Plant response rating, Blackgrass” value ([3]; 125 g ai/ha) was 85. The “Plant response rating, Ryegrass, Italian” value ([4]; 16 g ai/ha) was 0, the “Plant response rating, Ryegrass, Italian” value ([4]; 31 g ai/ha) was 0 and the “Plant response rating, Ryegrass, Italian” value ([4]; 62 g ai/ha) was 5. For the same compound, the “Plant response rating, Ryegrass, Italian” value ([4]; 125 g ai/ha) was 60, the “Plant response rating, Corn” value ([5]; 16 g ai/ha) was 0 and the “Plant response rating, Corn” value ([5]; 31 g ai/ha) was 0. The “Plant response rating, Corn” value ([5]; 62 g ai/ha) was 0, the “Plant response rating, Corn” value ([5]; 125 g ai/ha) was 0 and the “Plant response rating, Crabgrass, Large” value ([6]; 16 g ai/ha) was 5. For the same compound, the “Plant response rating, Crabgrass, Large” value ([6]; 31 g ai/ha) was 70, the “Plant response rating, Crabgrass, Large” value ([6]; 62 g ai/ha) was 98 and the “Plant response rating, Crabgrass, Large” value ([6]; 125 g ai/ha) was 100. The “Plant response rating, Pigweed” value ([7]; 16 g ai/ha) was 25, the “Plant response rating, Pigweed” value ([7]; 31 g ai/ha) was 65 and the “Plant response rating, Pigweed” value ([7]; 62 g ai/ha) was 75. The “Plant response rating, Pigweed” value ([7]; 125 g ai/ha) was 100, the “Plant response rating, Nutsedge, Yellow” value ([8]; 16 g ai/ha) was 0 and the “Plant response rating, Nutsedge, Yellow” value ([8]; 31 g ai/ha) was 0. For the same compound, the “Plant response rating, Nutsedge, Yellow” value ([8]; 62 g ai/ha) was 0, the “Plant response rating, Nutsedge, Yellow” value ([8]; 125 g ai/ha) was 5 and the “Plant response rating, Oilseed Rape” value ([9]; 16 g ai/ha) was 0. For the same compound, the “Plant response rating, Oilseed Rape” value ([9]; 31 g ai/ha) was 0, the “Plant response rating, Oilseed Rape” value ([9]; 62 g ai/ha) was 10 and the “Plant response rating, Oilseed Rape” value ([9]; 125 g ai/ha) was 60. For the same compound, the “Plant response rating, Morningglory” value ([10]; 16 g ai/ha) was 0, the “Plant response rating, Morningglory” value ([10]; 31 g ai/ha) was 0 and the “Plant response rating, Morningglory” value ([10]; 62 g ai/ha) was 0. For the same compound, the “Plant response rating, Morningglory” value ([10]; 125 g ai/ha) was 15, the “Plant response rating, Wheat” value ([11]; 16 g ai/ha) was 0 and the “Plant response rating, Wheat” value ([11]; 31 g ai/ha) was 0. For the same compound, the “Plant response rating, Wheat” value ([11]; 62 g ai/ha) was 0, the “Plant response rating, Wheat” value ([11]; 125 g ai/ha) was 0 and the “Plant response rating, Galium” value ([12]; 16 g ai/ha) was 90. For the same compound, the “Plant response rating, Galium” value ([12]; 31 g ai/ha) was 0, the “Plant response rating, Galium” value ([12]; 62 g ai/ha) was 0 and the “Plant response rating, Galium” value ([12]; 125 g ai/ha) was 40. For the same compound, the “Plant response rating, Johnsongrass” value ([13]; 16 g ai/ha) was 0, the “Plant response rating, Johnsongrass” value ([13]; 31 g ai/ha) was 0 and the “Plant response rating, Johnsongrass” value ([13]; 62 g ai/ha) was 5. The “Plant response rating, Johnsongrass” value ([13]; 125 g ai/ha) was 15, the “Plant response rating, Barnyardgrass” value ([14]; 16 g ai/ha) was 5 and the “Plant response rating, Barnyardgrass” value ([14]; 31 g ai/ha) was 20. The “Plant response rating, Barnyardgrass” value ([14]; 62 g ai/ha) was 40, the “Plant response rating, Barnyardgrass” value ([14]; 125 g ai/ha) was 75 and the “Plant response rating, Waterhemp” value ([15]; 16 g ai/ha) was 20. The “Plant response rating, Waterhemp” value ([15]; 31 g ai/ha) was 65, the “Plant response rating, Waterhemp” value ([15]; 62 g ai/ha) was 100 and the “Plant response rating, Waterhemp” value ([15]; 125 g ai/ha) was 100. The “Plant response rating, Soybean” value ([16]; 16 g ai/ha) was 0, the “Plant response rating, Soybean” value ([16]; 31 g ai/ha) was 10 and the “Plant response rating, Soybean” value ([16]; 62 g ai/ha) was 10. The “Plant response rating, Lambsquarters” value ([17]; 16 g ai/ha) was 30, the “Plant response rating, Lambsquarters” value ([17]; 31 g ai/ha) was 20 and the “Plant response rating, Lambsquarters” value ([17]; 62 g ai/ha) was 45. The “Plant response rating, Lambsquarters” value ([17]; 125 g ai/ha) was 60, the “Plant response rating, Velvetleaf” value ([18]; 16 g ai/ha) was 0 and the “Plant response rating, Velvetleaf” value ([18]; 31 g ai/ha) was 0. For the same compound, the “Plant response rating, Velvetleaf” value ([18]; 62 g ai/ha) was 5, the “Plant response rating, Velvetleaf” value ([18]; 125 g ai/ha) was 10 and the “Plant response rating, Ragweed” value ([19]; 16 g ai/ha) was 0. For the same compound, the “Plant response rating, Ragweed” value ([19]; 31 g ai/ha) was 0, the “Plant response rating, Ragweed” value ([19]; 62 g ai/ha) was 10 and the “Plant response rating, Ragweed” value ([19]; 125 g ai/ha) was 0. For the same compound, the “Plant response rating, Foxtail, Giant” value ([20]; 16 g ai/ha) was 10, the “Plant response rating, Foxtail, Giant” value ([20]; 31 g ai/ha) was 55 and the “Plant response rating, Foxtail, Giant” value ([20]; 62 g ai/ha) was 90. For the same compound, the “Plant response rating, Foxtail, Giant” value ([20]; 125 g ai/ha) was 100.
